SMILES strings stand for the structures. ≈ marks a conversion by molar mass, not a printed value.

The source of these data is PubChem BioAssay AID1996.

For the data set the following is noted: buffer; pH 7.4; 200.0 µM.
Consider `O=[N+]([O-])c1ccc(N2CCN(Cc3ccncc3)CC2)cc1`, for which the kinetic solubility was 35.3 µg/mL (≈ 118 µM).
As to `NS(=O)(=O)c1ccc(CCNC(=O)CN2CCN(S(=O)(=O)c3ccccc3F)CC2)cc1`, the kinetic solubility is > 72.7 µg/mL.
For `c1ccc(C2CC(c3ccccc3)C(c3ccccc3)N2)cc1` (configuration not stated) the value was 8.4 µg/mL (≈ 28.1 µM); for `O=C(O)c1ccccc1CSc1nc2ccccc2[nH]1`, > 42.6 µg/mL; for `CC(=O)NC1C(=O)N=C(SCC(=O)Nc2c(C)cccc2C)NC1=O` (configuration not stated), > 54.4 µg/mL.
For `COc1ccc(-c2cc(C(=O)Nc3ccccc3O)c3ccccc3n2)cc1` the value was < 0.4 µg/mL; for `COc1cccc(C(=O)N2CCCN(C)CC2)c1OC`, 36.2 µg/mL (≈ 130 µM); for `Fc1ccc(C2CCCN2Cc2nc(Cc3ccccc3F)no2)cc1` (configuration not stated), 11.6 µg/mL (≈ 32.6 µM).
Regarding `Fc1ccc2nc(Nc3ccccc3)sc2c1`, the solubility (kinetic) was found to be 0.5 µg/mL (≈ 2.05 µM). This solubility kinetic lies about 23-fold lower than the previous one.
The molecule `CC1CC2(C)CC(C)C1(COC(=O)Nc1ccccc1)CO2` (configuration not stated) yielded a solubility (kinetic) of 44.6 µg/mL (≈ 147 µM).
In turn, `COC(=O)c1ccccc1NC(=S)N1CCOCC1` came in with a solubility (kinetic) of 40.1 µg/mL (≈ 143 µM).
With `O=[N+]([O-])c1ccc(N2CCN(c3ccccc3O)CC2)cc1`, the solubility (kinetic) stood at 0.5 µg/mL (≈ 1.67 µM).
The molecule `O=C(/C=C/c1ccc([N+](=O)[O-])cc1)OCc1cnc(-c2ccccc2)o1` returned a solubility (kinetic) of 6.8 µg/mL (≈ 19.4 µM).
In the case of `COc1cc2ccccc2cc1C(=O)N1CCCC1` it was > 38.3 µg/mL; in that of `COc1ccc(OC)c(/C=C/C(=O)NCCc2nc3ccccc3[nH]2)c1`, 46.4 µg/mL (≈ 132 µM).
The molecule `Cc1noc(C(=O)Nc2ccc(F)c(Cl)c2)c1Cl` displayed a kinetic solubility of 1.4 µg/mL (≈ 4.84 µM). This solubility kinetic is about 33-fold lower than that of the molecule before.
Molecule `Cc1cc2ccccn2c1C(=O)c1cccc(F)c1` gave a solubility (kinetic) of 4.9 µg/mL (≈ 19.3 µM).
Take `O=C(Cn1c(NCCO)nc2ccccc21)Nc1cccc(S(=O)(=O)N2CCCC2)c1`: the solubility (kinetic) was 63.1 µg/mL (≈ 142 µM).
Molecule `O=C(CSc1nc2ccccc2s1)c1ccc(O)cc1O` showed a solubility (kinetic) of 3.3 µg/mL (≈ 10.4 µM). Against the preceding molecule, the solubility kinetic is about 19-fold lower.
In the case of `COCC1CCCN(Cc2nc(Cc3ccccc3)no2)C1` (configuration not stated) it was 44.7 µg/mL (≈ 148 µM); in that of `Cc1cc(NC(=O)Nc2cccc([N+](=O)[O-])c2)no1`, 2.2 µg/mL (≈ 8.39 µM).
As to `Cc1ccc(C(=O)N(C)CC(=O)Nc2ccc(F)c(F)c2F)o1`, the solubility (kinetic) is > 48.9 µg/mL.
As for `CCOc1ccc(N=Cc2c(O)n(-c3ccc(C)c(C)c3)c(=O)[nH]c2=O)cc1`, the kinetic solubility stood at 2.9 µg/mL (≈ 7.64 µM).
Consider `O=C(Nc1ccc(N2CCOCC2)cc1)c1cccc2ccccc12`, for which the solubility (kinetic) came to 2.7 µg/mL (≈ 8.12 µM). This solubility kinetic and that of the molecule before are within 1.5-fold of each other.
For the molecule `COc1cc2c(cc1OC)C(c1ccc(Cl)cc1)=NCC2`, the kinetic solubility worked out at 41.5 µg/mL (≈ 138 µM). Compared with the last molecule, the solubility kinetic is about 15-fold higher.
For `Cc1ccc(C)c(NC(=O)CN(C)C(=O)C2CCCC2)c1`, the solubility (kinetic) was > 43.3 µg/mL.
On to `O=C(COc1ccc2c(c1)CCC2)Nc1ccccn1`, for which the kinetic solubility came out at 14.2 µg/mL (≈ 52.9 µM).
For `CC(C)(C)c1ccc(C(=O)NCC(=O)N2CCNC(=O)C2)cc1`, the solubility (kinetic) is > 47.6 µg/mL.
`CCC(C)NC(=O)c1ccc(NC(=O)C2=C(C)OCCS2)cc1` (configuration not stated): the solubility (kinetic) is > 50.2 µg/mL.
Regarding `Clc1cccc(CN2CCSCC2)c1`, the solubility (kinetic) was determined as 3.8 µg/mL (≈ 16.7 µM).
`COc1ccc(NC(=O)c2sccc2C)cn1`: the kinetic solubility was > 37.2 µg/mL.
Take `Cc1ccc(Cl)cc1NC(=O)COC(=O)CSc1ccccc1`: the kinetic solubility was 7.2 µg/mL (≈ 20.6 µM).
With `O=C1NC(=O)N(c2ccc3c(c2)OCO3)C(=O)/C1=C\c1ccsc1`, the kinetic solubility was > 51.3 µg/mL.
In the case of `CC(C)C[C@H](NC(=O)N1CCCCCC1)C(=O)O`, the kinetic solubility was > 38.5 µg/mL.
For `CC(=O)c1ccc(OCC(=O)NC2CCCCCC2)cc1` the value was > 43.4 µg/mL; for `CCC(=O)Nc1ccc2c(c1)nc(CCNC(=O)c1ccco1)n2C`, > 51.1 µg/mL; for `COC(=O)c1ccccc1NC(=O)c1ccc2c(c1)OCCCO2`, 4.1 µg/mL (≈ 12.5 µM).
In the case of `COc1ccccc1C(=O)COC(=O)CN1C(=O)c2ccccc2C1=O` it was 6.4 µg/mL (≈ 18.1 µM); in that of `CC(=O)NC(c1ccc2ccccc2c1)c1ccc2cccnc2c1O` (configuration not stated), 1.2 µg/mL (≈ 3.5 µM); in that of `Cc1cc2ncn(CS(C)(=O)=O)c2cc1C`, 34.3 µg/mL (≈ 144 µM).
Molecule `Cc1[nH]c2ccccc2c1-c1nc2ccccc2[nH]c1=O` returned a solubility (kinetic) of 1.3 µg/mL (≈ 4.72 µM).
In the case of `c1ccc(N2CCN(Cc3ccc4c(c3)OCO4)CC2)nc1` it was 32.1 µg/mL (≈ 108 µM); in that of `C#CC1(OC(=O)c2ccccc2)CC(C)N(C)CC1C.Cl` (configuration not stated), > 46.2 µg/mL; in that of `Cc1cc(=O)[nH]c(SC(C)C(=O)Nc2cccc3ccccc23)n1` (configuration not stated), 42.7 µg/mL (≈ 126 µM).
Take `O=[N+]([O-])c1cccnc1Sc1ccccc1Cl`: the kinetic solubility was found to be 1.7 µg/mL (≈ 6.37 µM).
In the case of `Cc1ccccc1OCC(=O)OCC(=O)NCc1ccccc1`, the kinetic solubility is > 47 µg/mL.
As to `COc1cccc2cc(C(N)=O)oc12`, the kinetic solubility is > 28.7 µg/mL.
For the molecule `COc1ccc(-n2c(SCC(N)=O)nnc2-c2ccco2)cc1`, the solubility (kinetic) is > 49.6 µg/mL.
As for `Cc1ccccc1NS(=O)(=O)c1ccc2c(c1)oc(=O)n2C`, the kinetic solubility is 2.3 µg/mL (≈ 7.22 µM).
On to `O=C(NCC1CCCO1)C1CC(=O)N(c2ccccc2)C1` (configuration not stated), for which the kinetic solubility is > 43.3 µg/mL.
On to `COc1ccc2cc(C(=O)N(C)Cc3ccccc3)[nH]c2c1`, for which the kinetic solubility is < 0.3 µg/mL.
On to `O=C(COC(=O)c1cc(S(=O)(=O)N2CCCCC2)ccc1Cl)NC1CCS(=O)(=O)C1` (configuration not stated), for which the kinetic solubility was > 71.8 µg/mL.

In general, kinetic solubility refers to solubility judged after dilution from a stock solution rather than from solid.
